Like-named read-outs stand apart in the source and are kept apart here.
What was measured:
rhodesain [1] = target: T1, rhodesain (Trypanosoma brucei rhodesiense, UniProt Q95PM0); details: 1.5 h incubation (9: 400 µM; K11777: 500 nM), diluted 1:100, n = 2; uninhibited 0.68 ± 0.05 FU/s
Method: rhodesain was reassessed in DTT-free conditions (tris(2-carboxyethyl)phosphine = TCEP used as a non-
The reactivity towards water should not be seriously
To assess reversibility of the time-dependent inhibitor [4], and to therefore discriminate between slow-
reversible and irreversible inhibition, rhodesain was incubated with compound 9 for 1.5 h, at an inhibitor
concentration of 400 µM (7.5x KI) to enable the quantita tive progression of a covale nt irreversible reaction
if one is possible. The same incubation was performed with DMSO alone as a negative control and in
presence of 500 nM K11777 as a positive irreversible control. After this incubation period, the samples
were diluted 1:100 (to 4 µM of compound 9 (0.075x KI)) into assay buffer containing substrate to record
the degree of recovery of enzymatic activity over the course of 10 min.
Raw activity of rhodesain after dilution was

rhodesain [2] = target: T1, rhodesain; assay: MALDI-TOF-MS (sinapinic acid matrix) adduct detection; assay type: binding; set-up: stably transformed with the rhodesain ΔC gene cloned into the pPICZαA vector; made in house; host or cells: Pichia pastoris X-33 (pPICZαA, secreted into the culture supernatant); details: 100 µM inhibitor, 10 µM rhodesain, acidic sinapinic acid matrix
Method: Using MALDI-TOF-MS, differentiation between non-covalent and covalent ligand-target complexes is possible if acidic matrices are used that interfere with ionic and dipole interactions (i.e., suppress non-covalent interactions).
Protein mass spectrometry was performed as described before, but also described in detail in the SI. In short, rhodesain was incubated with a surplus of inhibitor under conditions similar to those of the enzyme assays described above to enable complex formation. This sample was desalted and then incorporated into a sinapinic acid matrix, which was then subjected to mass spectrometry. Data analysis was performed using mMass.
Mass spectrometric experiments were performed as described before. Lyophilized rhodesain was first […]
manufacturer’s instructions.
Then, the mixtures were left in the fume hood for cocrystallization until dry.
TOF/TOF mass spectrometer (Bruker Daltonik GmbH, Bremen, Germany). The instrument is equipped […]
cropping from 22–27 kDa was performed.
Baseline was corrected with standard settings. […]

Rhodesain (TbCatL) = target: T2, Rhodesain (TbCatL) (Trypanosoma brucei rhodesiense, UniProt Q95PM0); assay: Fluorimetric rhodesain inhibition assay with Z-Phe-Arg-AMC; assay type: biochemical; details: for Inhibition of rhodesain, in words: SAR discussion; for Mode of inhibition (time dependency, reversibility): from progress curves
T2 construct: stably transformed with the rhodesain ΔC gene cloned into the pPICZαA vector; made in house; host or cells: Pichia pastoris X-33 (pPICZαA, secreted into the culture supernatant)
Method: Inhibition of rhodesain was assessed using Z-Phe-Arg-AMC as a fluorogenic substrate. IC50 or KI^app were determined depending on the time dependency of the progress curves. Because a competitive mode of inhibition can be assumed, Ki (for reversible inhibition) and KI (for irreversible inhibition) were calculated using the Cheng–Prusoff equation [30].
Fluorimetric enzyme assays were performed as described in the literature. Information regarding buffers, concentrations, the employed substrate, as well as data analysis for linear and non-linear regression is given in the SI. In short, the cleavage of a fluorogenic substrate by the protease of interest is detected in the presence of different concentrations of inhibitors. […] For the irreversible compound with non-linear regression, the kinetic kinact value was also plotted, from which k2nd was calculated.
To investigate this influence, its inhibition of […]
nucleophilic reducing agent for enzyme activation).
Reversibility assessment for time-dependent inhibitor 9
After this incubation period, the samples
Rhodesain, CatL, CatB Assays
Continuous fluorometric measurements with a Tecan Spark 10M reader in a 96 well plate format was used to evaluate activity. Rhodesain, HsCatB and HsCatL were diluted in their respective activation buffer prior to use. Rhodesain was incubated in this for 30–60 min prior to use. The enzyme of interest (5 µL) was incubated with the inhibitor in question (10 µL), and its specific substrate (5 µL) in the respective assay buffer. The fluorescence signal was measured every 30 s for 10 min at room temperature with the corresponding excitation/emission wavelengths (λex = 380 nm / λem = 460 nm). The final concentrations and buffer compositions are depicted in SI-Table S1. Inner-filter effect corrections were performed as described in literature if deviations >5% were detected.
SI-Table S1: Information on assay conditions. [E] = final enzyme concentration, [S] = final substrate concentration in well.
For the evaluation of 9 in absence of DTT (depicted in SI-Figure S5): 5 nM final rhodesain concentration that was activated before in presence of TCEP (alternative activation buffer: 5 mM DTT → 5 mM TCEP) […]
Time-independent behavior
For inhibitors that behaved time-independently during the measurements (i.e., F-t-diagrams show constant slope), IC50 values using defined dilution series for each compound were calculated with GraphPad PRISM by fitting the remaining enzymatic activity to a four parameter IC50 equation with Y [%] as the residual enzyme activity, Ymax as the maximum value of the dose response curve at inhibitor concentrations [I] = 0 µM, Ymin as the minimum value at high inhibitor concentrations and s as the Hill […]
y [%residual activity]=௬ౣ౗౮ ି௬ౣ౟౤ೞ + y୫୧୬ eq. 1
It is assumed that the inhibitors bind competitively in respect to the substrate. Due to the dependence of the IC50 value on the substrate affinity and concentration, the Ki values were calculated with the Cheng-Prusoff equation, using the final substrate concentration [S] and the Michaelis-Menten constant KM to […]
For inhibitors that behaved time-dependently during the measurements (i.e., F-t-diagrams show reducing slopes over time), KIapp and kinact values using defined dilution series for each compound were calculated

[3] = Parallel artificial membrane permeability assay (PAMPA); details: pH 7.4
Method: An artificial membrane consisting of phosphatidylcholine dissolved in n-dodecane was employed to control equilibration between two connected aqueous compartments, of which one contained the compound of interest. This model for compound permeation through a cell membrane was incubated, and the resulting concentration in the acceptor compartment was quantified spectroscopically.
A general literature-known principle was used [11]. Propranolol hydrochloride was sourced from Changzou Yabang Pharmaceutical (Fagron GmbH & Co. KG). Candesartan cilexetil was sourced as a chemical reference standard from the EDQM (catalogue code Y0001388).
Incubation setup consisted of donor (top) plate (Sigma Aldrich, MAIPNTR10), 5 µL artificial membrane
(1 % (w/v) L-α-phosphatidyl choline, Sigma Aldrich P3556, in n-dodecane, Sigma Aldrich 8205430100),
transparent measurement plate (Greiner UV-Star®, 655801), Tecan Spark 10M® well plate reader, 200 µL

[4] = Aqueous solubility observed in PAMPA set-up; assay type: physicochemical; details: buffered aqueous solution pH 7.4, 5% DMSO
Method: acceptor (bottom) plate (Greiner, 655074). Measurement setup for direct spectroscopy consisted of UV- […]
sample volume, λ = 200–650 nm. […]
elution (0.7 mL/min). Injection volume was 100 µL. Areas of peaks in the chromatogram (detection-λ = 210 nm) were used to calculate the AUCs. Retention time and mass spectrum recorded in positive ionization mode were used to assign species. Analysis was performed using MestreNova. […]
donor plate. This was sealed (Greiner, 676070, Viewseal sealer). 400 µL of acceptor solution was applied to the acceptor plate. Incubation setup was assembled and left for 7 h. After this time, acceptor and reference solutions were analyzed.
The acceptor solutions of those were measured
P௔௣௣ = −(௏ವ ା௏ಲ )∗஺∗௧ eq. 6

[5] = Stability towards general substitution reactions (water, DTT); assay type: physicochemical; details: NH4OAc buffer pH 5.5, with or without DTT; UV spectra and LCMS
Method: 0.1 inhibitor concentration
SI-Figure S1: (A) Absorption spectra of 2, 3 and 9 with different concentrations, visualizing a potential need for mathematical correction at high concentrations for nitroanilines. ( B) Experimental proof that mathematical correction of attenuation of AMC fluorescence is only necessary for inhibitor concentrations ≥10 µM. For 2 and 3 at 10 µM attenuation of fluorescence signal is 14 and 11 %, respectively. At concentrations relevant for IC50 evaluation, no relevant interference is detected.
Stability measurements towards general substitution reactions
2, 3 and 9 (from 20 mM stock solutions in DMSO) were diluted into NH4OAc buffer (pH 5.5) to final concentrations of 100 µM, 125 µM or 1 mM and incubated in buffer alone or in presence of as much DTT as present in the fluorimetric rhodesain assay and the MALDI-TOF experiment, respectively. This was recorded with absorption spectroscopy (results depicted in SI-Figure S2) on a Tecan Spark 10M plate reader in UV-transparent 96-well plates (Greiner UV-Star®, 655801, 200 µL volume per sample) or with LCMS (see “measurement setup for LCMS” as described under the method for PAMPA; results depicted […]
system at pH 5.5 over the course of the time necessary for the employed assays. There is a small difference detectable in reactivity of 3 with 5 mM DTT: a slight but time-dependent change in UV-spectrum was found where the maximum at 265 nm decreased in intensity, indicating a small degree of degradation […]
that is not observed with lower DTT concentration or with 2 at all. The formation takes place on a much larger timescale as the time for detection in the assays (minutes vs. hours) and is therefore irrelevant to the performed evaluations. […]
repeated LCMS analysis indicates the formation of the phenol (substitution of fluoride) over the course of hours. This also seems to happen in the DMSO stock solution to a small degree after some usage (explains the presence of phenol at 0 min). Accordingly, in presence of DTT, both the phenol and the thioether are detected by MS for this compound. […]

T1 sequence (Q95PM0 entry or part of it): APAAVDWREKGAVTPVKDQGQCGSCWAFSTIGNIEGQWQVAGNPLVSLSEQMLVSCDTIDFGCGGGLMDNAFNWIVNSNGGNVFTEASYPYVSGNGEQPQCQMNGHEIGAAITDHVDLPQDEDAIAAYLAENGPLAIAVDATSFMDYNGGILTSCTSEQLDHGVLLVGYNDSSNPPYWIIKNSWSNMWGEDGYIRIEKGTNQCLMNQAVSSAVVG
T2 sequence (Q95PM0 entry or part of it): as above

Row | Compound | Ki (Rhodesain (TbCatL)) [µM] | Inhibition of rhodesain, in words (Rhodesain (TbCatL)) | also measured
1 | CN1CCN(C(=O)N[C@@H](Cc2ccccc2)C(=O)N[C@H](/C=C/S(=O)(=O)c2ccccc2)CCc2ccccc2)CC1 [Compound K11777, reference compound] | – | – | Activity of rhodesain after incubation and subsequent dilution (rhodesain [1]): −0.01 ±0.00 FU/s; Adduct with rhodesain in MALDI-TOF-MS (rhodesain [2]): showed the expected mass shift representative of covalent adduct formation
2 | CC(C)C[C@H](NC(=O)[C@H](Cc1ccccc1)NC(=O)Nc1ccc(F)c([N+](=O)[O-])c1)C(=O)O [Compound 7] | 50 | did not produce an active inhibitor | –
3 | C[C@@H](Nc1cc(F)c([N+](=O)[O-])cc1[N+](=O)[O-])C(=O)N[C@H](CCc1ccccc1)C(=O)O [Compound 15] | 22 | – | –
4 | CC(C)C[C@H](NC(=O)[C@H](Cc1ccccc1)Nc1cc(Cl)ncn1)C(=O)O [Compound 6] | 102 | did not produce an active inhibitor | –
5 | CC(C)C[C@H](NC(=O)[C@H](Cc1ccccc1)Nc1ccc([N+](=O)[O-])c([N+](=O)[O-])c1)C(=O)OC(C)(C)C [Compound 20] | – | – | Papp at 7 h, 100 µM [3]: 93 ± 7 nm/s; aqueous solubility [4]: poor aqueous solubility
6 | CC(C)C[C@H](NC(=O)[C@H](Cc1ccccc1)Nc1ccccc1[N+](=O)[O-])C(=O)O [Compound 1] | 39 | – | –
7 | CC(C)C[C@H](NC(=O)[C@H](Cc1ccccc1)NC(=O)c1ccc(Cl)nc1Cl)C(=O)O [Compound 8] | 30 | did not yield relevant inhibition | –
8 | CC(C)C[C@H](NC(=O)[C@H](Cc1ccccc1)Nc1ccc([N+](=O)[O-])cc1)C(=O)O [Compound 4] | 17 | – | –
9 | CC(C)C[C@H](NC(=O)[C@H](Cc1ccccc1)NC(=O)c1cccc([N+](=O)[O-])c1F)C(=O)O [Compound 10] | 14 | ineffective | –
10 | CC(C)C[C@H](NC(=O)[C@H](Cc1ccccc1)Nc1cc(F)ccc1[N+](=O)[O-])C(=O)O [Compound 5] | 44 | did not result in inhibition | –
11 | N-(5-fluoro-2,4-dinitrobenzoyl)-L-phenylalanyl-L-leucine [Compound 9] | – | – | Activity of rhodesain after incubation and subsequent dilution (rhodesain [1]): −0.01 ±0.00 FU/s; Adduct with rhodesain in MALDI-TOF-MS (rhodesain [2]): An adduct was also found for 9, albeit with a shift lower than the mass of the inhibitor; Reactivity towards unspecific nucleophiles (water and DTT) [5]: relevant reactivity towards unspecific nucleophiles; Ki (Rhodesain (TbCatL); DTT-free conditions, TCEP for enzyme activation, read-out: KIapp): 200 µM; Ki (Rhodesain (TbCatL); KI, irreversible time-dependent inhibition, from KI^app by Cheng–Prusoff, read-out: Ki or KI): 53 µM; Mode of inhibition (time dependency, reversibility) (Rhodesain (TbCatL)): irreversible; Ki (Rhodesain (TbCatL); standard conditions with DTT, read-out: KIapp): 700 µM
12 | C[C@H](NC(=O)[C@H](CCc1ccccc1)Nc1cc(F)c([N+](=O)[O-])cc1[N+](=O)[O-])C(=O)O [Compound 16] | 13 | – | –
13 | CC(C)C[C@H](NC(=O)[C@H](Cc1ccccc1)NC(=O)c1cc([N+](=O)[O-])c(Cl)cc1[N+](=O)[O-])C(=O)O [Compound 12] | 25 | – | Mode of inhibition (time dependency, reversibility) (Rhodesain (TbCatL)): abolished the time-dependent mode of inhibition
14 | O=C(O)[C@H](CCc1ccccc1)NC(=O)[C@H](Cc1ccccc1)Nc1cc(F)c([N+](=O)[O-])cc1[N+](=O)[O-] [Compound 17] | 6 | – | –
15 | CC(C)C[C@H](NC(=O)[C@H](Cc1ccccc1)Nc1ccc([N+](=O)[O-])c([N+](=O)[O-])c1)C(=O)O [Compound 2] | 0.0028 ± 0.0002 | – | Adduct with rhodesain in MALDI-TOF-MS (rhodesain [2]): no adduct was found; Reactivity towards unspecific nucleophiles (water and DTT) [5]: no relevant tendency towards either side reaction; IC50 (Rhodesain (TbCatL)): 0.0364 ± 0.0023 µM; Mode of inhibition (time dependency, reversibility) (Rhodesain (TbCatL)): time-independent
16 | O=C(O)[C@@H](Cc1ccccc1)NC(=O)[C@@H](CCc1ccccc1)Nc1cc(F)c([N+](=O)[O-])cc1[N+](=O)[O-] [Compound 18] | 12 | – | –
17 | C[C@H](Nc1cc(F)c([N+](=O)[O-])cc1[N+](=O)[O-])C(=O)N[C@@H](CCc1ccccc1)C(=O)O [Compound 13] | 13 | – | –
18 | CC(C)C[C@H](NC(=O)[C@H](Cc1ccccc1)NC(=O)c1cc([N+](=O)[O-])ccc1F)C(=O)O [Compound 11] | 13 | ineffective | –
19 | CC(C)C[C@H](NC(=O)[C@H](Cc1ccccc1)Nc1cc(F)c([N+](=O)[O-])cc1[N+](=O)[O-])C(=O)O [Compound 3] | 0.0019 ± 0.0001 | – | Adduct with rhodesain in MALDI-TOF-MS (rhodesain [2]): an adduct corresponding to the mass of the inhibitor was observed; Reactivity towards unspecific nucleophiles (water and DTT) [5]: no relevant tendency towards either side reaction; IC50 (Rhodesain (TbCatL)): 0.0245 ± 0.0017 µM; Mode of inhibition (time dependency, reversibility) (Rhodesain (TbCatL)): time-independent
20 | C[C@@H](NC(=O)[C@@H](CCc1ccccc1)Nc1cc(F)c([N+](=O)[O-])cc1[N+](=O)[O-])C(=O)O [Compound 14, ((R)-2-((5-fluoro-2,4-dinitrophenyl)amino)-4-phenylbutanoyl)-D-alanine] | 27 | – | –

Reference: article PMC11173422, “Substitution-Induced Mechanistic Switching in SNAr-Warheads for Cysteine Proteases” (Molecules, 2024)
